# Measured values reported in EP0469548B1, “4-Amino-delta4-steroids and their use as 5alpha-reductase inhibitors” (MERRELL PHARMACEUTICALS INC., priority 1990, dated 1992).
# pIC50: −log10 of the molar value.
# Target: T1, steroid 5α-reductase enzyme (Homo sapiens, UniProt P31213)
# T1 construct: Microsomal preparations of the steroid 5α-reductase enzyme (protein) were obtained from human prostate tissue; from tissue; host or cells: human prostate tissue (microsomal preparation)
# T1 sequence (P31213 1-254): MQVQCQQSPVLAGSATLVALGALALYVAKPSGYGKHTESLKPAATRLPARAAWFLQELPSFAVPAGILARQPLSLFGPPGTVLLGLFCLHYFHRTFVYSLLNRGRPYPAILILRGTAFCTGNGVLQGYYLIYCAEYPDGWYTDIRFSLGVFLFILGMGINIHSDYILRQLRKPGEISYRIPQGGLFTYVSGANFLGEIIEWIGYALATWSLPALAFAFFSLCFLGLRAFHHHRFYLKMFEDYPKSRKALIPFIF
# Assay: 5α-reductase inhibition in microsomal preparations (conversion of testosterone to dihydrotestosterone, HPLC)
# Type: biochemical
# Protocol: Microsomal preparations of the steroid 5α-reductase enzyme (protein) were obtained from human prostate tissue and stored in aliquots. Protein concentration was determined prior to use of the samples. In the method itself, individual assays for 5α-reductase activity contained 0.1M phosphate citrate buffer, pH 5.6, 1mM EDTA, 7 to 22 µg of microsomal protein, 1mM NADPH, 5 mM glucose-6-phosphate, 1 IU/ml glucose-6-phosphate dehydrogenase, 1,2-³H-testosterone, and test compound, dissolved in dimethyl sulfoxide and then diluted in phosphate-citrate buffer to yield a final assay concentration of 0.1% (v/v) dimethyl sulfoxide. The same buffer and the same quantity of dimethyl sulfoxide, without any test compound was used for the control assays. The total assay volume was 100 µl and assays were performed in duplicate. The reaction was initiated by the addition of the testosterone, and incubated for 30 minutes at 25°C. The assay is linear with time to 30 minutes.
# Depending on the nature of the inhibition, testosterone concentration was typically varied from 0.15 µM (approximately 0.5 Km) to 10 Km with radioactive label constant at 0.15 µCi per assay. The amount of test compound added was varied to provide final concentrations of 1 nM to 100 µM. The reaction was quenched by the addition of 50 volumes of chloroform:methanol (2:1). The steroids were then extracted and separated by high pressure liquid chromatography and the amounts of testosterone and dihydrotestosterone present were measured to determine the percent conversion of testosterone to dihydrotestosterone and to calculate the 5α-reductase activity. The activity of the test compound was then expressed as the IC₅₀, or the concentration of test compound that produced a 50% inhibition of the testosterone conversion. When compounds of the present invention were tested in this way, the following results were observed: […]
row,SMILES,pIC50
1,"CC(C)(C)NC(=O)[C@H]1CC[C@H]2[C@@H]3CCC4=C(N)C(=O)CC[C@]4(C)[C@H]3CC[C@]12C [4-Amino-N-(1,1-dimethylethyl)-3-oxoandrost-4-ene-17β-carboxamide]",7.23
2,"CC(=O)[C@H]1CC[C@H]2[C@@H]3CCC4=C(N)C(=O)CC[C@]4(C)[C@H]3CC[C@]12C [4-Aminopregn-4-ene-3,20-dione]",7.30
3,C[C@H](CO)[C@H]1CC[C@H]2[C@@H]3CCC4=C(N)C(=O)CC[C@]4(C)[C@H]3CC[C@]12C [(20S)-4-Amino-21-hydroxy-20-methylpregn-4-en-3-one],7.27
4,"CC(C)N(C(=O)[C@H]1CC[C@H]2[C@@H]3CCC4=C(N)C(=O)CC[C@]4(C)[C@H]3CC[C@]12C)C(C)C [4-Amino-N,N-bis(1-methylethyl)-3-oxoandrost-4-ene-17β-carboxamide]",6.98
